Measured values taken from patent US20160000796A1, “PHARMACEUTICAL COMPOSITION FOR USE IN PREVENTION OR TREATMENT OF CANCER” (priority 2013, published 2016).

Legend:
[1] = tested on: ATL cell line, ED40515 (−); experiment: Apoptosis (annexin V flow cytometry), ED40515 (−); type: cell-based; conditions: 100 μM, 24 or 48 hours
Description: DMSO (solvent control), adriamycin (ADR, positive control), or abacavir (100 μM) was added to an ATL cell line, ED40515 (−). The cells were cultured for 24 hours or 48 hours. After the culture of a predetermined time, the cells were stained with annexin V, and annexin V positive cells were measured by flow cytometry. The annexin V positive cells were determined as apoptotic cells.

[2] = tested on: TDP1-knocked-down cells (Jurkat); experiment: Cellular proliferation (MTS) of TDP1-knocked-down cells; type: cell-based, human; conditions: TDP1 siRNA-introduced Jurkat versus control siRNA-introduced cells; 300 μM; 48 hours
Description: The cells were cultured for 48 hours. MTS assay was performed using a reagent for cellular proliferation test, Aqueous One Solution Cell Proliferation (trade name, manufactured by Promega), in the same manner as in Example 1.

[3] = tested on: Jurkat (non-HTLV-1-infected cell line); experiment: Cellular proliferation (MTS assay), Jurkat; type: cell-based, human; conditions: 100 μM
Description: (§1) Each nucleoside analogue reverse transcriptase inhibitor was added to the medium for cells at a final concentration of 100 μM. Cells were seeded on a 96-well plate at a concentration of 1×10^4 cells/100 μL/well and cultured for 4 hours (Day 0), 48 hours (Day 2) or 96 hours (Day 4). A medium added DMSO (solvent control) alone was used as a control. Cellular proliferation was examined by MTS assay. Specifically, after the cells were cultured for a predetermined time, a reagent for cellular proliferation test, Aqueous One Solution Cell Proliferation (trade name, manufactured by Promega), was added to the cells. Four hours later, absorbance at 490 nm was measured. The cellular proliferation was represented by a ratio relative to that of the control (solvent control) on Day 0 that was regarded as 1.
(§2) This example used non-HTLV-1-infected cell lines: Jurkat (cell line derived from human T-cell leukemia, ATCC No: TIB-152), Kit225 (cell line derived from chronic T-cell leukemia, established in the laboratory of the inventors, Blood. 1987 October; 70 (4): 1069-72.), H9 (cell line derived from cutaneous T-cell lymphoma, ATCC No: HTB-176) and SUDHL6 (cell line derived from diffuse B cell lymphoma).
(§3) The six types of nucleoside analogue reverse transcriptase inhibitors as used in Example 1 were used and cellular proliferation was examined in the same manner as in Example 1.

[4] = tested on: non-ATL cell line, Jurkat; experiment: PARP inhibitor combination, cellular proliferation (MTS), Jurkat; type: cell-based, human; conditions: abacavir 10, 50 or 100 μM, 48 hours
Description: To an ATL cell line, ED40515 (−), or a non-ATL cell line, Jurkat, abacavir was added at a concentration of 0 μM (DMSO, was added instead of abacavir), 10 μM, 50 μM or 100 μM, and further a PARP inhibitor, olaparib, was added at a concentration of 0 μM (DMSO was added instead of olaparib), 1 μM, 10 μM, 100 μM or 1000 μM. The cells were cultured for 48 hours. MTS assay was performed using a reagent for cellular proliferation test, Aqueous One Solution Cell Proliferation (trade name, manufactured by Promega), in the same manner as in Example 1. The cellular proliferation was represented by a ratio relative to that of the control (solvent control) on Day 0 that was regarded as 1.

[5] = tested on: DT40-derived mutants each lacking a DNA repair enzyme; experiment: Cellular proliferation of DT40-derived mutants (CellTiter-Glo ATP method); type: cell-based, chicken; conditions: 25 μM, 48 hours
Description: This example used wild-type DT40, which is a chicken B cell-derived cell line, and DT40-devired mutants each lacking a DNA repair enzyme. Those cell lines are available from the laboratory of Radiation Genetics, Graduate School of Medicine and Faculty of Medicine Kyoto University (see, Literatures: (1) Mol Cell Biol. 2001 April; 21 (8): 2858-66. (2) PLoS Genet. 2011 July; 7 (7): e1002148. (3) Mol Cell Biol. 2008 October; 28 (19): 6113-22. (4) J Biol Chem. 2012 Apr. 13; 287 (16): 12848-57.).
Abacavir was added to the medium of each cell line at a final concentration of 25 μM. The cells were seeded on a 96-well plate at a concentration of 1×10^4 cells/100 μL/well and cultured for 48 hours. After the culture, cellular proliferation was determined by CellTiter-Glo Luminescent Cell Viability Assay (trade name, manufactured by Promega) in accordance with the ATP method.
Specifically, the value on the vertical axis is −1 when the proliferation rate compared to the wild-type is 50%, and −2 when the proliferation rate compared to the wild-type is 25%.

[6] = tested on: ATL cell line, ED40515 (−); experiment: Chromosome double-strand break (Giemsa chromosome specimens), ED40515 (−); type: cell-based; conditions: 48 hours, abacavir 10-100 μM, zidovudine 10 or 100 μM
Description: Abacavir was added to an ATL cell line, ED40515 (−), at a concentration of 0 μM (DMSO was added instead of abacavir), 10 μM, 25 μM, 50 μM, 75 μM or 100 μM. After the 48 hours culture, the cells were fixed by Carnoy and stained with Giemsa to prepare chromosome specimens in accordance with conventional methods. Similarly, zidovudine was added to ED40515 (−) at a concentration of 10 μM or 100 μM, and abacavir was added to a non-ATL cell line, Jurkat, at a concentration of 100 μM, and chromosome specimens were prepared. Chromosome images (100 or more images per group) were observed by an optical microscope. The cells were determined as being positive for double-strand break (DSB) when at least one chromosome break was found.

[7] = tested on: Kit225 (non-HTLV-1-infected cell line); experiment: Cellular proliferation (MTS assay), Kit225; type: cell-based; conditions: 100 μM
Description: as §1, §2, §3

Nc1nc(NC2CC2)c2ncn([C@H]3C=C[C@@H](CO)C3)c2n1 [abacavir, (−)-(1S,4R)-4-[2-amino-6-(cyclopropylamino)-9H-purin-9-yl]-2-cyclopentene-1-methanol]
apoptosis (annexin V positive cells) [1]: induced apoptosis
cellular proliferation relative to abacavir-non-treated cells (100%) [2]: significantly lower
cellular proliferation [3]: did not exhibit a suppressive effect
cellular proliferation [4]: did not suppress cellular proliferation
cellular proliferation relative to wild-type DT40 (Log2 Gene/WT) ([5]; DT40 mutant lacking BRCA1): showed a suppressive effect
cellular proliferation relative to wild-type DT40 (Log2 Gene/WT) ([5]; DT40 mutant lacking GEN1): showed a suppressive effect
cellular proliferation relative to wild-type DT40 (Log2 Gene/WT) ([5]; DT40 mutant lacking PCNA): showed a suppressive effect
cellular proliferation relative to wild-type DT40 (Log2 Gene/WT) ([5]; DT40 mutant lacking TDP1): showed a suppressive effect
cellular proliferation relative to wild-type DT40 (Log2 Gene/WT) ([5]; DT40 mutant lacking XRCC2): showed a suppressive effect
ratio of double-strand break-positive cells [6]: increased the ratio of double-strand break-positive cells in a dose-dependent manner
cellular proliferation [7]: did not exhibit a suppressive effect
